How the values were obtained:
Test in all cases: NCI 60 cell line screen
Type in all cases: cell-based
SF-268 = details: Homo sapiens; SF-268, CNS-Cancer; read-out: Percent growth
Experimental: (§1) Anticancer profiling over a panel of 60 cancer cell lines was carried out at the National Cancer Institute (NCI), Bethesda, Maryland, USA, https://dtp.cancer.gov/discovery_development/nci-60/methodology.htm (Last visit 22 September 2021), using the standard procedure (detailed procedure is located in the Supplementary Information page 50 s).
(§2) NCI standard procedure for 60 cell lines assay
(§3) The human tumor cell lines of the cancer screening panel are grown in RPMI 1640 mediu m containing 5% fetal bovine serum and 2 mM L-glutamine. For a typical screening experiment, cells are inoculated into 96 well microtiter plates in 100 μL at plating densities ranging from 5,000 to 40,000 cells/well depending on the doubling time of individual cell lines. After cell inoculation, the microtiter plates are incubated at 37° C, 5 % CO2, 95 % air and 100 % relative humidity for 24 h prior to addition of experimental drugs.
(§4) After 24 h, two plates of each cell line are fixed in situ with TCA, to represent a measurement of the cell population for each cell line at the time of drug addition (Tz). Experimental drugs are solubilized in dimethyl sulfoxide at 400-fold the desired final maximum test concentration (10 µM) and stored frozen prior to use. At the time of drug addition, an aliquot of frozen concentrate is thawed and diluted to twice the desired final maximum test concentration with co mp lete medium containing 50 μg/ml gentamicin. Additional four, 10-fold or ½ log serial dilutions are made to provide a total of five drug concentrations plus control. Aliquots of 100 μl of these different drug dilutions are added to the appropriate microtiter wells already containing 100 μl of medium, resulting in the required final drug concentrations.
(§5) Following drug addition, the plates are incubated for an additional 48 h at 37°C, 5 % CO2, 95 % air, and 100 % relative humidity. For adherent cells, the assay is terminated by the addition of cold TCA. Cells are fixed in situ by the gentle addition of 50 μl of cold 50 % (w/v) TCA (final concentration, 10 % TCA) and incubated for 60 minutes at 4°C. The supernatant is discarded, and the plates are washed five times with tap water and air dried. Sulforhodamine B (SRB) solution (100 μl) at 0.4 % (w/v) in 1 % acetic acid is added to each well, and plates are incubated for 10 minutes at room temperature. After staining, unbound dye is removed by washing five times with 1 % acetic acid and the plates are air dried. Bound stain is subsequently solubilized with 10 mM trizma base, and the absorbance is read on an automated plate reader at a wavelength of 515 nm. For suspension cells, the methodology is the same except that the assay is terminated by fixing settled cells at the bottom of the wells by g ently adding 50 μl of 80 % TCA (final concentration, 16 % TCA). Using the seven absorbance measurements [time zero, (Tz), control growth, (C), and test growth in the presence of drug at the five concentration levels (Ti)], the percentage growth is calculated at each of the drug concentrations levels. Percentage growth inhibition is calculated as:
(§6) [(Ti-Tz)/(C-Tz)] x 100 for concentrations for which Ti>/=Tz
(§7) [(Ti-Tz)/Tz] x 100 for concentrations for which Ti<Tz.
(§8) Three dose response parameters are calculated for each experimental agent. Growth inhibition of […]
(§9) resulting in a 50% reduction in the net protein increase (as measured by SRB staining) in control cells during the drug incubation. The drug concentration resulting in total growth inhibition […]
(§10) (TGI) is calculated from Ti = Tz.

OVCAR-5 = details: Homo sapiens; OVCAR-5, Ovarian Cancer; read-out: Percent growth
Experimental: as §1, §2, §3, §4, §5, §6, §7, §8, §9, §10

CCRF-CEM = details: Homo sapiens, Leukemia, read-out: Percent growth
Experimental: as §1, §2, §3, §4, §5, §6, §7, §8, §9, §10

A549/ATCC = details: Homo sapiens, Non-Small Cell Lung Cancer, read-out: Percent growth
Experimental: as §1, §2, §3, §4, §5, §6, §7, §8, §9, §10

MALME-3M = details: Homo sapiens, Melanoma, read-out: Percent growth
Experimental: as §1, §2, §3, §4, §5, §6, §7, §8, §9, §10

SK-MEL-2 = details: Homo sapiens; SK-MEL-2, Melanoma; read-out: Percent growth
Experimental: as §1, §2, §3, §4, §5, §6, §7, §8, §9, §10

NCI-H322M = details: Homo sapiens, Non-Small Cell Lung Cancer, read-out: Percent growth
Experimental: as §1, §2, §3, §4, §5, §6, §7, §8, §9, §10

LOX IMVI = details: Homo sapiens, Melanoma, read-out: Percent growth
Experimental: as §1, §2, §3, §4, §5, §6, §7, §8, §9, §10

IGROV1 = details: Homo sapiens, IGROV-1; IGROV1, Ovarian Cancer; read-out: Percent growth
Experimental: as §1, §2, §3, §4, §5, §6, §7, §8, §9, §10

OVCAR-3 = details: Homo sapiens; OVCAR-3, Ovarian Cancer; read-out: Percent growth
Experimental: as §1, §2, §3, §4, §5, §6, §7, §8, §9, §10

UACC-62 = details: Homo sapiens; UACC-62, Melanoma; read-out: Percent growth
Experimental: as §1, §2, §3, §4, §5, §6, §7, §8, §9, §10

SN12C = details: Homo sapiens, Renal Cancer, read-out: Percent growth
Experimental: as §1, §2, §3, §4, §5, §6, §7, §8, §9, §10

SK-OV-3 = details: Homo sapiens; SK-OV-3, Ovarian Cancer; read-out: Percent growth
Experimental: as §1, §2, §3, §4, §5, §6, §7, §8, §9, §10

DU-145 = details: Homo sapiens; DU-145, Prostate Cancer; read-out: Percent growth
Experimental: as §1, §2, §3, §4, §5, §6, §7, §8, §9, §10

HL-60(TB) = details: Homo sapiens, Leukemia, read-out: Percent growth
Experimental: as §1, §2, §3, §4, §5, §6, §7, §8, §9, §10

HOP-62 = details: Homo sapiens; HOP-62, Non-Small Cell Lung Cancer; read-out: Percent growth
Experimental: as §1, §2, §3, §4, §5, §6, §7, §8, §9, §10

TK-10 = details: Homo sapiens; TK-10, Renal Cancer; read-out: Percent growth
Experimental: as §1, §2, §3, §4, §5, §6, §7, §8, §9, §10

MDA-MB-231/ATCC = details: Homo sapiens, Breast Cancer, read-out: Percent growth
Experimental: as §1, §2, §3, §4, §5, §6, §7, §8, §9, §10

OVCAR-8 = details: Homo sapiens; OVCAR-8, Ovarian Cancer; read-out: Percent growth
Experimental: as §1, §2, §3, §4, §5, §6, §7, §8, §9, §10

BT-549 = details: Homo sapiens; BT-549, Breast Cancer; read-out: Percent growth
Experimental: as §1, §2, §3, §4, §5, §6, §7, §8, §9, §10

ACHN = details: Homo sapiens, Renal Cancer, read-out: Percent growth
Experimental: as §1, §2, §3, §4, §5, §6, §7, §8, §9, §10

MDA-MB-435 = details: Homo sapiens; MDA-MB-435, Melanoma; read-out: Percent growth
Experimental: as §1, §2, §3, §4, §5, §6, §7, §8, §9, §10

SNB-19 = details: Homo sapiens; SNB-19, CNS-Cancer; read-out: Percent growth
Experimental: as §1, §2, §3, §4, §5, §6, §7, §8, §9, §10

Structure (SMILES)	activity at 10 µM (SF-268) [%]	activity at 10 µM (OVCAR-5) [%]	activity at 10 µM (CCRF-CEM) [%]	activity at 10 µM (A549/ATCC) [%]	activity at 10 µM (MALME-3M) [%]	activity at 10 µM (SK-MEL-2) [%]	activity at 10 µM (NCI-H322M) [%]	activity at 10 µM (LOX IMVI) [%]	activity at 10 µM (IGROV1) [%]	activity at 10 µM (OVCAR-3) [%]	activity at 10 µM (UACC-62) [%]	activity at 10 µM (SN12C) [%]	activity at 10 µM (SK-OV-3) [%]	activity at 10 µM (DU-145) [%]	activity at 10 µM (HL-60(TB)) [%]	activity at 10 µM (HOP-62) [%]	activity at 10 µM (TK-10) [%]	activity at 10 µM (MDA-MB-231/ATCC) [%]	activity at 10 µM (OVCAR-8) [%]	activity at 10 µM (BT-549) [%]	other results
O=S(=O)(NCCNc1nccc(-n2cnc3ccccc32)n1)c1ccccc1 [12a, N-(2-((4-(1H-benzo [d]imidazol-1-yl)pyrimidin-2-yl)amino)ethyl)benzenesulfonamide]	94.1	92.5	96	104	101	115	94.9	95	89.9	109	78.3	85.1	101	109	113	90.7	104	87.6	98	106	activity at 10 µM (ACHN): 94.2%; activity at 10 µM (MDA-MB-435): 109%; activity at 10 µM (SNB-19): 99.6%
O=S(=O)(NCCCNc1nccc(-n2cnc3ccccc32)n1)c1ccc(F)cc1 [12i, N-(3-((4-(1H-benzo [d]imidazol-1-yl)pyrimidin-2-yl)amino)propyl)-4-fluorobenzenesulfonamide]	86.3	98.6	49	88.8	86.1	85.8	99.5	74	91.8	86.7	61.6	89	85.2	87.2	90.9	82.7	91.9	74.4	62.5	34.9	activity at 10 µM (ACHN): 81.2%; activity at 10 µM (MDA-MB-435): 64.6%; activity at 10 µM (SNB-19): 92.6%
